For data set [1], the target named is Human immunodeficiency virus type 1 reverse transcriptase (Human immunodeficiency virus 1, UniProt Q72547). The data set is described as follows: Inhibition of HIV1 reverse transcriptase.
Data set [2] addresses Human immunodeficiency virus type 1 reverse transcriptase (Human immunodeficiency virus 1) (UniProt Q72547).
A short description of data set [3]: Tmax in human plasma after the first dose of drug. Type of data set: ADME, organism-based.
A short description of data set [4]: Half life in human administered as single dose. The class given is ADME, organism-based. Particulars: in vivo.
Data set [5] in a line: Half life in human administered as multiple doses. The class given is ADME, organism-based. The following applies: in vivo.

By IC50 is commonly meant the point on the concentration scale where inhibition reaches its midpoint. Low values mean greater potency, high ones weaker potency. With `C=CCC[C@]12C[C@@]1(C(=O)OCC)C(=O)Nc1ccc(Br)cc12`, the IC50 in data set [1] came to 1 nM. What is called IC90 is the concentration at which the effect reaches the 90% level. As to `O=C1Nc2ccc(Cl)cc2[C@@](C#CC2CC2)(C(F)(F)F)N1`, the IC90 in data set [2] was determined as 2.7 nM.

Consider `CCCCC[C@]12C[C@@]1(C(=O)OCC)C(=O)Nc1ccc(Br)cc12`, for which the IC50 in data set [1] came out at 1 nM.

In turn, `O=C1Nc2ccc(F)cc2[C@@](C#CC2CC2)(C(F)(F)F)O1` showed an IC90 in data set [2] of 7.35 nM. For the molecule `O=C1Nc2ccc(-c3ccccc3)cc2[C@@](C#CC2CC2)(C(F)(F)F)O1`, it took 279 nM to reach the 90% level in data set [2] (IC90).

`COc1ccc2c(c1)[C@@](C#CC1CC1)(C(F)(F)F)OC(=O)N2`: it took 2 nM to reach the 90% level in data set [2] (IC90). In data set [1], `COc1ccc2c(c1)N(C(=O)OC(C)C)[C@@H](CSC)C(=O)N2` showed an IC50 of 2 nM. `O=C1Nc2ccc([N+](=O)[O-])cc2[C@@](C#CC2CC2)(C(F)(F)F)O1` gave a concentration for an effect of 90% (IC90) in data set [2] of 0.83 nM. This lies in the sub-nanomolar range.

The molecule `O=S1(c2ccccc2)=NC(=S)Nc2ccccc21` (stereo not drawn) returned an IC50 in data set [1] of 950 nM.

Consider `Nc1ccc2c(c1)[C@@](C#CC1CC1)(C(F)(F)F)OC(=O)N2`, for which, in data set [2], the 90% effect level (IC90) was put at 20.6 nM. In other words, the double-digit nanomolar range. Still for that read-out and setting: under `CCCO[C@@](C#CC1CC1)(c1cc(CC)c(C)[nH]c1=O)C(F)(F)F` stands 32 nM. Regarding `CC[C@H]1C(=O)Nc2ccc(F)cc2N1C(=O)OC(C)C` [OPAVIRALINE], the IC50 in data set [1] came to 45 nM. In data set [2], this molecule returned an IC90 of 4.8 nM. Turning to `Cc1ccc2c(c1)[C@@](C#CC1CC1)(C(F)(F)F)OC(=O)N2`, the IC90 in data set [2] is 7.11 nM. This lies in the single-digit nanomolar range. The same measure, in the same setting: under `O=C1Nc2ccc(Cl)cc2[C@@](C#Cc2ccco2)(C(F)(F)F)O1` stands 3.8 nM; under `C=CCO[C@]1(C(F)(F)F)OC(=O)Nc2ccc(Cl)cc21`, 3.9 nM; under `O=C1Nc2ccc(OC(F)(F)F)cc2[C@@](C#CC2CC2)(C(F)(F)F)O1`, 18.9 nM.

In data set [2], `Cc1ccc2c(c1)C(O)(C#CC1CC1)C(=O)N2C` (stereo not drawn) showed an IC90 of 6 nM.

`O=C1Nc2ccc(Cl)cc2[C@@](C#Cc2ccccn2)(C(F)(F)F)O1`: the IC90 in data set [2] is 5.39 nM. This IC90 and that of the molecule before are within 1.5-fold of each other. Same read-out and setting: the same measure for `CN1C(=O)C(O)(C#CC2CC2)c2ccccc21` (stereo not drawn): 40 nM.

On to `CCOC(=O)[C@@H]1C[C@@]12C(=O)Nc1ccc(Cl)cc12`, for which the midpoint of inhibition in data set [1], the IC50, lay at 59 nM. Regarding `CCCCO[C@]1(C(F)(F)F)OC(=O)Nc2ccc(Cl)cc21`, the IC90 in data set [2] is 10.2 nM. In other words, the double-digit nanomolar range.

Turning to `O=C1Nc2ccccc2[C@@](C#CC2CC2)(C(F)(F)F)O1`, the IC90 in data set [2] came out at 10.3 nM. `CC(C)CCO[C@]1(C(F)(F)F)OC(=O)Nc2ccc(Cl)cc21`: the IC90 in data set [2] was determined as 10.1 nM. This IC90 and that of the molecule before are within 1.5-fold of each other. Still for that read-out and setting: the same measure for `CC(C)=CCO[C@]1(C(F)(F)F)OC(=O)Nc2ccc(Cl)cc21`: 2.68 nM.

For `CNc1ccc2c(c1)[C@@](C#CC1CC1)(C(F)(F)F)OC(=O)N2`, the IC90 in data set [2] was 9.02 nM. In data set [1], `CCOC1(c2ccccc2)c2cc(Cl)ccc2NC(=O)N1C` (stereo not drawn) gave an IC50 of 56 nM.

`CC(C)=CCN1C(C)C(=O)Nc2ccc(Cl)cc2S1(=O)=O` (stereo not drawn) came in with an IC50 in data set [1] of 800 nM. `CC(=O)Nc1ccc2c(c1)[C@@](C#CC1CC1)(C(F)(F)F)OC(=O)N2` registered an IC90 in data set [2] of 296 nM.

In turn, `C#CC1(C2CC2)c2cc(Cl)ccc2NC(=O)N1C` (stereo not drawn) had an IC50 in data set [1] of 6 nM. Still for that read-out and setting: the same measure for `C[C@@H]1O[C@](/C=C/C2CC2)(C(F)(F)F)c2cc(Cl)ccc2NC1=O`: 46 nM.

For the molecule `O=C1Nc2cccc(F)c2[C@@](C#CC2CC2)(C(F)(F)F)O1`, the 90% effect level in data set [2] (IC90) was put at 4.35 nM. That is a single-digit nanomolar value. Usually Tmax stands for the time at which the peak concentration occurs. Usually half-life stands for the time needed for the level to fall by half in the phase considered. Read a high half-life as slow loss. As for `O=C1Nc2ccc(Cl)cc2[C@@](C#CC2CC2)(C(F)(F)F)O1` [EFAVIRENZ], the Tmax in data set [3] came out at 5 h. Also, the half-life in data set [4] is 52 h; in data set [5], 40 h. `CCO[C@]1(C(F)(F)F)OC(=O)Nc2ccc(Cl)cc21` came in with an IC90 in data set [2] of 18.3 nM.

In data set [2], `CC(C)C#C[C@]1(C(F)(F)F)NC(=O)Nc2ccc(Cl)cc21` returned a 90% effect concentration (IC90) of 3 nM. This IC90 lies about 6.1-fold lower than the previous one. Still for that read-out and setting: the same measure for `CN(C)c1ccc2c(c1)[C@@](C#CC1CC1)(C(F)(F)F)OC(=O)N2`: 8.33 nM.
